The text below walks through data of paper PMC8960621, “Solution speciation and human serum protein binding of indium(III) complexes of 8-hydroxyquinoline, deferiprone and maltol” (Journal of Biological Inorganic Chemistry, 2022).

For assay [1], the target named is T1, HSA (Homo sapiens, UniProt P02768).
T1 construct: purchased Sigma-Aldrich A8763
Nature of the assay: Fluorescence lifetime (TCSPC) of the complexes in the presence of HSA. The format is binding. As to conditions: additional lifetime component in the presence of HSA (2–10 μM), 10 μM complex, pH 7.40. The method, then: The fluorescence lifetime of InQ3 was determined in the absence and presence of HSA. […] GaQ3 behaves similarly (Table 2), while lifetimes of InD3 were too short (τ ≤ 0.2 ns) for accurate determination with our instrument. By the addition of HSA to the complex, two additional lifetime components appeared for InQ3: τ3 = 5.7 ± 0.3 ns and τ4 = 13.8 ± 0.6 ns, which correspond to the HSA bound forms. […] The GaQ3 ‒ HSA system could be characterized with similar lifetime parameters (Table 2).
Fluorescence lifetime was measured on the same fluorometer equipped with a DeltaHub time-correlated single photon counting (TCSPC) controller applying NanoLED light sources N-300 (λmax = 300 nm) and N-350 (λmax = 355 nm) (Horiba Jobin Yvon). The background (obtained with blank samples) was subtracted from the decay of the samples. The program DAS6 (version 6.6.; Horiba, Jobin Yvon) was used for the analysis of the experimental fluorescence decays. The fluorescence intensity decay over time is described by a sum of exponentials,1 It=∑i=1nαiexp-t/τi where αi and τi are the normalized amplitude and lifetime of component i respectively. The quality of the fit was judged from a χ^2R value close to 1.0 and a random distribution of weighted residuals.

Assay [2] deals with T2, apoTf (Homo sapiens, UniProt P02787).
T2 construct: purchased Sigma-Aldrich T2036
Nature of the assay: Interaction with (apo)Tf: ligand displacement and binding of the intact complex (UV-vis, fluorescence, ultrafiltration). As to conditions: pH 7.40. The method, then:
Therefore, UV–vis and fluorescence emission spectra of InQ3 were recorded in the presence of increasing amounts of apoTf (Fig. 5a, b). After a short initial phase, the absorbance band of InQ3 is reduced gradually by the addition of the protein, while the development of the new band at lower wavelengths (at ca. 310 nm) refers to the liberation of HQ. Namely, there is a competition for In(III) ion between the ligand and the iron-binding sites of apoTf. Absorbance values depicted at 370 nm and 310 nm (Fig. 5c) saturate roughly to the corresponding values of the free ligand and outline a sigmoidal shape. Fluorescence intensity of the same sample set (Fig. 5b, d) was enhanced and moderately blue shifted (from λmax = 540 nm to 532 nm) until the addition of ca. 0.2 equiv. apoTf. […] Then, by the addition of more apoTf, intensities decreased and λmax shifted further to shorter wavelengths (527 nm). […] Based on this and the results of apoTf quenching (vide supra) protein binding of the non-dissociated complex is presumed. This is further supported by fluorescence lifetime measurements; where new lifetime components τ3 = 4.7 ± 0.2 ns and τ4 = 13.8 ± 0.4 ns appeared for InQ3 in the presence of 0.1 – 0.3 equiv. apoTf (after 1 min waiting time). […] Here, the sigmoid shape of the UV–vis absorbance was seen again (Fig. S5) and the shifted inflection point in comparison to the titration with apoTf underlines the lower In(III) binding capacity of Tf. […]
In the case of InD3, the absorbance bands of the metal complex and apoTf overlap in great extent, however, spectra can be deconvoluted to the spectra of InD3, deferiprone and apoTf (see Fig S6 for details), and molar fractions of the respective species can be calculated (Fig. 6). Ultrafiltration experiments were carried out as well for the InD3 – apoTf system and the non-protein bound LMM fractions were analyzed by UV–vis spectrophotometry (Fig. 6). […] The complex dissociated in line with the addition of apoTf and a practically quantitative displacement of deferiprone seems to take place by the addition of ca. 0.5 equiv. apoTf. […]

For assay [3], the target named is T3, apo-transferrin (apoTf) (Homo sapiens, UniProt P02787).
T3 construct: purchased Sigma-Aldrich T2036
Nature of the assay: Kinetics of the reaction with apoTf followed by UV-vis spectrophotometry. Type of assay: binding. The settings on record: pH 7.40 (InCl3: 2 equiv.). How it is done: Firstly, the kinetics of the reaction between apoTf and InCl3 and the complexes was studied by UV–vis spectrophotometry. The reaction of 2 equiv. […] At the same time Harris et al. have observed slow equilibration with InCl3, that was accelerated (to 6 h) in the presence of NTA [18]. In the case of InQ3 and InD3, the progress of apoTf binding could be followed through the ligand bands of the complexes. […] The Ga(III)-analogue GaQ3 interacted within 1 h with apoTf under similar conditions.
For (apo)Tf containing samples, complex concentrations were 20 μM and 0–2.5 equiv. protein was added. Reference spectra for the complexes, ligands and protein were recorded as well. Samples prepared with blood serum contained three-fold diluted serum and 10 μM metal complexes. UV–vis spectra presented in this paper for complexes InD3 or InQ3 are subtracted by the spectrum of reference protein (HSA (apo)Tf or serum) sample in all cases in favour of the better interpretation of the results.

The structures appear in SMILES notation. Where “and” joins values, the source holds several entries; their conditions need not be identical. Equal entries are not always repeated.

T1 sequence (P02768 25-609): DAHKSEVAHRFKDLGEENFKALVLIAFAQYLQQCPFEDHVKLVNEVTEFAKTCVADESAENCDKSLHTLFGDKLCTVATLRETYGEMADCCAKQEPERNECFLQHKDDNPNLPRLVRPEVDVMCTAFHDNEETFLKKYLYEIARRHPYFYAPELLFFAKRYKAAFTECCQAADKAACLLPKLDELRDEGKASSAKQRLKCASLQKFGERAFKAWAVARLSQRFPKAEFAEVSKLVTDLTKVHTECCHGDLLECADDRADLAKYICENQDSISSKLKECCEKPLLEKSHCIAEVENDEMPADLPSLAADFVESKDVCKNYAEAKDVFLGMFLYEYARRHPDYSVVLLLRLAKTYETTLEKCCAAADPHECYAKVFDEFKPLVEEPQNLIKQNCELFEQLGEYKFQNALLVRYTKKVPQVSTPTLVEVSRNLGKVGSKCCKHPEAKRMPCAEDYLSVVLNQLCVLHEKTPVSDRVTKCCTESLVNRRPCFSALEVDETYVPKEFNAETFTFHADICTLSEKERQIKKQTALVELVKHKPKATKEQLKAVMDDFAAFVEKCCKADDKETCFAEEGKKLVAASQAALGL
T3 sequence (P02787 20-698): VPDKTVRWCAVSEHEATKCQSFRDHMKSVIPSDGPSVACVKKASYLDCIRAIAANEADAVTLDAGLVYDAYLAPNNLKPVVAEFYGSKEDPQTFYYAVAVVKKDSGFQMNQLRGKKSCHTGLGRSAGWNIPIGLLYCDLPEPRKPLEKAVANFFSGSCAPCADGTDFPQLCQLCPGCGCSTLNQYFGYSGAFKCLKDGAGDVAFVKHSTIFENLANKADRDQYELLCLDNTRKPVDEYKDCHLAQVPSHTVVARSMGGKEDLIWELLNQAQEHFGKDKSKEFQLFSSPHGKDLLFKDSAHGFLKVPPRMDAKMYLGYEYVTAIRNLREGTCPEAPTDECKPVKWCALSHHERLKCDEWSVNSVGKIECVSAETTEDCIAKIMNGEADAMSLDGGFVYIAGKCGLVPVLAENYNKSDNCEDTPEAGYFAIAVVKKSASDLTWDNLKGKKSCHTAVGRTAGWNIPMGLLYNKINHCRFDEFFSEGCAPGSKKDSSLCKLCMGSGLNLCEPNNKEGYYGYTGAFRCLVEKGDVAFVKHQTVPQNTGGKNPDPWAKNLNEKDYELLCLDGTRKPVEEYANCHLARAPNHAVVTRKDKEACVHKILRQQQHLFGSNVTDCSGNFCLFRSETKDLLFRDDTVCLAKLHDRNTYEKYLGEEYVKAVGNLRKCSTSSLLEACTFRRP
T2 sequence (P02787 20-698): as above

In the case of `[Ga+3].[O-]c1cccc2cccnc12.[O-]c1cccc2cccnc12.[O-]c1cccc2cccnc12` [GaQ3, Tris(8-Quinolinolato)gallium(III), reference compound], in assay [1], the τ3 came to 5.0 ± 0.3 ns and the τ4 was 14.0 ± 0.2 ns. The “binding via intermolecular interactions to apoTf (and Tf)” value in assay [2] (UV–vis and fluorescence) is reported as “no such binding was observed”.

On to `Cc1c([O-])c(=O)ccn1C.Cc1c([O-])c(=O)ccn1C.Cc1c([O-])c(=O)ccn1C.[In+3]` [InD3], for which, in assay [3], the “time to reach equilibrium in the reaction with apoTf” value is reported as ~0.5 h. The “apoTf needed for practically quantitative displacement of the ligand” value in assay [2] (UV–vis deconvolution and ultrafiltration) was “ca. 0.5 equiv”.

Consider `[In+3].[O-]c1cccc2cccnc12.[O-]c1cccc2cccnc12.[O-]c1cccc2cccnc12` [InQ3, Tris(8-Quinolinolato)indium(III)], for which, in assay [3], the “time to reach equilibrium in the reaction with apoTf” value lay in the range of 3 to 4 h. Besides, in assay [1], the τ3 is 5.7 ns and 5.7 ± 0.3 ns; the τ4 was 13.8 ns and 13.8 ± 0.6 ns.
